Measurements as given in PubChem BioAssay AID624385 (Sanford-Burnham Center for Chemical Genomics, 2012).
Activity calls are given as the source filed them. The rule behind the calls is not given here.

Biological target: Small ubiquitin-related modifier 2 (Homo sapiens) (UniProt P61956)
Assay: SUMO2–SIM peptide binding inhibitors, dose response, selectivity assay for SUMO1 interaction inhibitor project, biochemical, fluorescence polarization, uHTS hits (AID 624385)

Small ubiquitin-related modifier 2 (Homo sapiens), sequence (P61956 whole entry, looked up): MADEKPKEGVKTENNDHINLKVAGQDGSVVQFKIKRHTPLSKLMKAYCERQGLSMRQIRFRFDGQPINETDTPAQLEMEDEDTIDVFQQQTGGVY

IC50 | SMILES
> 66 µM (inactive) | N#CC(C(=O)Nc1cccc(Cl)c1)=C1Nc2ccccc2N1
inactive | C[c-]1[c-](C)[c-](C)[c-](C)[c-]1C.[Fe].c1cc2nccc(N3CCCC3)[c-]2c1 (configuration not stated)
